Reference: ChEMBL document CHEMBL1135625, “Synthesis and antiinflammatory evaluation of 9-anilinoacridine and 9-phenoxyacridine derivatives” (J Med Chem, 2002)

Columns and labels:
Rattus norvegicus [1] = organism: Rattus norvegicus; assay: % inhibition against mast cell degranulation by measuring the content of beta-glucuronidase in the supernatant; type: functional; set-up: concentration or dose not given beside the values
Rattus norvegicus [2] = organism: Rattus norvegicus; assay: % inhibition against mast cell degranulation by measuring the content of histamine in the supernatant; type: functional; set-up: concentration or dose not given beside the values
Rattus norvegicus [3] = organism: Rattus norvegicus; assay: Inhibitory activity against mast cell degranulation by measuring the content of beta-glucuronidase in the supernatant; type: functional
Rattus norvegicus [4] = organism: Rattus norvegicus; assay: Inhibitory activity against mast cell degranulation by measuring the content of histamine in the supernatant; type: functional
N9 [5] = assay: (§1) Inhibitory activity against TNF-alpha release in N9 cells in the supernatant; type: functional, cell-based, Mus musculus
N9 [6] = assay: % inhibition against TNF-alpha release in N9 cells in the supernatant; type: functional, Mus musculus; set-up: concentration or dose not given beside the values
Rattus norvegicus [7] = organism: Rattus norvegicus; assay: Inhibitory activity against neutrophil degranulation by measuring the content of beta-glucuronidase in the supernatant; type: functional
Rattus norvegicus [8] = organism: Rattus norvegicus; assay: Inhibitory activity against neutrophil degranulation by measuring the content of lysozyme in the supernatant; type: functional
Rattus norvegicus [9] = organism: Rattus norvegicus; assay: % inhibition against neutrophil degranulation by measuring the content of beta-glucuronidase in the supernatant; type: functional; set-up: concentration or dose not given beside the values
Rattus norvegicus [10] = organism: Rattus norvegicus; assay: % inhibition against neutrophil degranulation by measuring the content of lysozyme in the supernatant; type: functional; set-up: concentration or dose not given beside the values
RAW264.7 [11] = assay: (§2) Inhibitory activity against TNF-alpha release in RAW 264.7 cells in the supernatant; type: functional, cell-based; settings: Mus musculus
RAW264.7 [12] = assay: % inhibition against TNF-alpha release in RAW 264.7 cells in the supernatant; type: functional, Mus musculus; set-up: concentration or dose not given beside the values
Rattus norvegicus [13] = organism: Rattus norvegicus; assay: 50% inhibition against mast cell degranulation by measuring the content of beta-glucuronidase in the supernatant; type: functional
Rattus norvegicus [14] = organism: Rattus norvegicus; assay: % inhibition against mast cell degranulation by measuring the content of beta-glucuronidase in the supernatant; settings: concentration not given here
N9 [15] = assay: 50% inhibition against TNF-alpha release in N9 cells in the supernatant; type: functional, cell-based; settings: Mus musculus
RAW264.7 [16] = assay: 50% inhibition against TNF-alpha release in RAW 264.7 cells in the supernatant; type: functional, cell-based; settings: Mus musculus
N9 [17] = assay: as §1; type: functional, Mus musculus
RAW264.7 [18] = assay: as §2; type: functional, Mus musculus

Row | IC50 (Rattus norvegicus [3]) [µM] | IC50 (Rattus norvegicus [4]) [µM] | IC50 (N9 [5]) [µM] | IC50 (Rattus norvegicus [7]) [µM] | IC50 (Rattus norvegicus [8]) [µM] | IC50 (RAW264.7 [11]) [µM] | IC50 (Rattus norvegicus [13]) [µM] | inhibition (Rattus norvegicus [14]) [%] | IC50 (N9 [15]) [nM] | IC50 (RAW264.7 [16]) [µM] | SMILES | Inhibition (Rattus norvegicus [1]) [%] | Inhibition (Rattus norvegicus [2]) [%] | Inhibition (N9 [6]) [%] | Inhibition (Rattus norvegicus [9]) [%] | Inhibition (Rattus norvegicus [10]) [%] | Inhibition (RAW264.7 [12]) [%] | Inhibition (N9 [17]) [%] | Inhibition (RAW264.7 [18]) [%]
1 |  | 16 | > 10 | > 30 | 21.3 | > 30 | 19.5 |  |  |  | COc1cccc2c(Oc3ccc(C(C)=O)cc3)c3ccccc3nc12 |  |  | 19.7 | 35.2 |  | 34.3 |  | 
2 | > 30 | > 30 | > 3 | 12.9 | 18.3 | 19.3 |  | 25 |  |  | COc1ccc2nc3ccccc3c(Oc3ccc(C(C)=O)cc3)c2c1 |  | 9.4 | 36.1 |  |  |  |  | 
3 | > 30 | > 30 |  | > 30 | 23.7 |  |  |  | 800 | > 10 | CC(=O)c1ccc(Nc2c3ccccc3nc3ccccc23)cc1 | 34.7 | 15.7 |  | 26.7 |  | 47.2 |  | 
4 | > 30 | > 30 | 8.7 | > 30 | > 30 | > 30 |  |  |  |  | CC(=O)/C=C/c1ccc(Oc2c3ccccc3nc3ccccc23)cc1 | 7.7 | -10.5 |  | 32.4 | 10.3 | -15.7 |  | 
5 |  | 21.5 |  | > 30 | > 30 | > 30 | 20.7 |  | > 3000 |  | O=Cc1ccc(Oc2c3ccccc3nc3ccccc23)cc1 |  |  |  | 49.9 | 44.8 |  | 19.9 | 17.2
6 | > 30 | > 30 | > 3 | > 30 | 18.7 | > 30 |  |  |  |  | CC(=O)c1ccc(Oc2c3ccccc3nc3ccccc23)cc1 | 44.6 | 43.8 | 23.9 | 42 |  | 45.6 |  | 
7 | > 30 | > 30 | > 30 | > 30 | > 30 | > 30 |  |  |  |  | CC(=O)c1ccc(Oc2c3ccccc3nc3ccc(Cl)cc23)cc1 | 29.4 | 14.4 | 12.3 | 14.8 | -16.4 | 4.6 |  | 

Continued, compound first:

Row | SMILES | IC50 (Rattus norvegicus [3]) [µM] | IC50 (Rattus norvegicus [4]) [µM] | IC50 (N9 [5]) [µM] | IC50 (Rattus norvegicus [7]) [µM] | IC50 (Rattus norvegicus [8]) [µM] | IC50 (RAW264.7 [11]) [µM] | IC50 (Rattus norvegicus [13]) [µM] | inhibition (Rattus norvegicus [14]) [%] | IC50 (N9 [15]) [nM] | IC50 (RAW264.7 [16]) [µM] | Inhibition (Rattus norvegicus [1]) [%] | Inhibition (Rattus norvegicus [2]) [%] | Inhibition (N9 [6]) [%] | Inhibition (Rattus norvegicus [9]) [%] | Inhibition (Rattus norvegicus [10]) [%] | Inhibition (RAW264.7 [12]) [%] | Inhibition (N9 [17]) [%] | Inhibition (RAW264.7 [18]) [%]
8 | COc1ccc2nc3cc(Cl)ccc3c(Oc3ccc(C(C)=O)cc3)c2c1 | > 30 | > 30 | > 10 | > 30 | > 30 | > 30 |  |  |  |  | 26.4 | 7.2 | 45.9 | 10.4 | -12.8 | 33.1 |  | 
9 | CCN(CC)CCCC(C)Nc1c2ccc(Cl)cc2nc2ccc(OC)cc12 (stereo not drawn) [QUINACRINE] | 28.8 | 31.2 |  |  |  |  |  |  |  |  |  |  |  |  |  |  |  | 
10 | C[C@@H]1C[C@H]2[C@@H]3CCC4=CC(=O)C=C[C@]4(C)[C@@]3(F)[C@@H](O)C[C@]2(C)[C@@]1(O)C(=O)CO [DEXAMETHASONE] |  |  | 0.074 |  |  | 0.42 |  |  |  |  |  |  |  |  |  |  |  | 
11 | CC(=O)c1ccc(Oc2c3c(nc4ccccc24)CCCC3)cc1 | > 30 | > 30 | > 3 | > 30 | > 30 | > 30 |  |  |  |  | 13.3 | 5.7 | -3.5 | 42.1 | 32.4 | 48.9 |  | 
12 | CN1CCN(CCCN2c3ccccc3Sc3ccc(C(F)(F)F)cc32)CC1 [TRIFLUOPERAZINE] | 12.8 | 10.1 |  |  |  |  |  |  |  |  |  |  |  |  |  |  |  | 
13 | C/C(=N\O)c1ccc(Nc2c3ccccc3nc3ccccc23)cc1 | > 30 | > 30 |  | 4.4 | 8.2 |  |  |  | > 3000 | > 10 | 29.5 | 23.3 | 40.1 |  |  | 44.9 |  | 
14 | CC(=O)COc1ccc(Nc2c3ccccc3nc3ccccc23)cc1 | > 30 | > 30 |  | > 30 | > 30 |  |  |  | > 1000 | 8.2 | 1.3 | 19.2 | 6.6 | 35.8 | 21.6 |  |  | 
15 | CO/N=C(\C)c1ccc(Nc2c3ccccc3nc3ccccc23)cc1 |  | 20.8 |  | > 30 | > 30 |  | 21 |  | > 3000 | > 30 |  |  | 39.3 | 46.9 | 15.4 | 7.2 |  | 
